Measured values: PubChem BioAssay AID256 (DTP/NCI, 2004)
Several values for one entry are separate records, joined by “and”; a condition that tells them apart may be missing. Identical values can stand only once. Toxic doses and inconclusive results are not listed. How the source made its calls: active means survival T/C of 150% or more; inactive means T/C below 125% in these data.

Test system: CD2F1 mice, L1210 leukemia ip, survival T/C
Assay: NCI In Vivo Anticancer Drug Screen. Data for tumor model L1210 Leukemia (intraperitoneal) in CD2F1 (CDF1) mice
Details: higher = longer survival
Method in brief: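 Mice carrying a transplanted tumor received test compound or vehicle alone. The value is the measurement in the treated group divided by that in the vehicle-treated control group.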

[1] = endpoint: mean survival time, dose: 12.5 mg/kg/injection, schedule: Q04DX003 (ip), vehicle: saline with Tween-80
[2] = endpoint: mean survival time, dose: 100.0 mg/kg/injection, schedule: Q01DX009 (ip), vehicle: saline with Tween-80
[3] = endpoint: mean survival time, dose: 200.0 mg/kg/injection, schedule: Q01DX009 (ip), vehicle: saline with Tween-80
[4] = endpoint: mean survival time, dose: 100.0 mg/kg/injection, schedule: Q01DX001 (ip), vehicle: saline with Tween-80
[5] = endpoint: mean survival time, dose: 100.0 mg/kg/injection, schedule: Q04DX003 (ip), vehicle: saline with Tween-80
[6] = endpoint: mean survival time, dose: 200.0 mg/kg/injection, schedule: Q04DX003 (ip), vehicle: saline with Tween-80
[7] = endpoint: mean survival time, dose: 100.0 mg/kg/injection, schedule: Q01DX001 (ip), vehicle: saline
[8] = endpoint: mean survival time, dose: 200.0 mg/kg/injection, schedule: Q01DX001 (ip), vehicle: saline
[9] = endpoint: mean survival time, dose: 100.0 mg/kg/injection, schedule: Q04DX003 (ip), vehicle: saline
[10] = endpoint: mean survival time, dose: 200.0 mg/kg/injection, schedule: Q04DX003 (ip), vehicle: saline
[11] = endpoint: mean survival time, dose: 400.0 mg/kg/injection, schedule: Q04DX003 (ip), vehicle: saline
[12] = endpoint: mean survival time, dose: 100.0 mg/kg/injection, schedule: Q04DX002 (ip), vehicle: saline with Tween-80
[13] = endpoint: mean survival time, dose: 200.0 mg/kg/injection, schedule: Q04DX002 (ip), vehicle: saline with Tween-80

Measured: T/C

Nc1ccc(NC(=O)Nc2ccc(N)cc2)cc1
inactive: endpoint: mean survival time, dose: 3.0 mg/kg/injection, schedule: Q01DX009 (ip), vehicle: saline sonified 96 % of control | endpoint: mean survival time, dose: 6.0 mg/kg/injection, schedule: Q01DX009 (ip), vehicle: saline sonified 94 % of control | endpoint: mean survival time, dose: 12.0 mg/kg/injection, schedule: Q01DX009 (ip), vehicle: saline sonified 96 % of control | [1] 104 % of control

CCOc1ccc([NH-])c([NH-])c1.[Cl][Pt+2][Cl]
inactive: endpoint: mean survival time, dose: 2.5 mg/kg/injection, schedule: Q01DX009 (ip), vehicle: distilled water + Tween-80 100 % of control | endpoint: mean survival time, dose: 5.0 mg/kg/injection, schedule: Q01DX009 (ip), vehicle: distilled water + Tween-80 107 % of control | endpoint: mean survival time, dose: 10.0 mg/kg/injection, schedule: Q01DX009 (ip), vehicle: distilled water + Tween-80 91 % of control

O=S(=O)(O)/[N+]([O-])=N/O
inactive: endpoint: mean survival time, dose: 100.0 mg/kg/injection, schedule: Q01DX009 (ip), vehicle: saline sonified 103 % of control | endpoint: mean survival time, dose: 200.0 mg/kg/injection, schedule: Q01DX009 (ip), vehicle: saline sonified 95 % of control | endpoint: mean survival time, dose: 400.0 mg/kg/injection, schedule: Q01DX009 (ip), vehicle: saline sonified 101 % of control

N#Cc1ccc(NC=O)cc1
inactive: endpoint: mean survival time, dose: 100.0 mg/kg/injection, schedule: Q04DX003 (ip), vehicle: Klucel (hydroxypropylcellulose) (HPC) 98 % of control | endpoint: mean survival time, dose: 200.0 mg/kg/injection, schedule: Q04DX003 (ip), vehicle: Klucel (hydroxypropylcellulose) (HPC) 98 % of control | endpoint: mean survival time, dose: 400.0 mg/kg/injection, schedule: Q04DX003 (ip), vehicle: Klucel (hydroxypropylcellulose) (HPC) 102 % of control

CCOC(=O)C(OC(C)=O)c1ccccc1 (centres undefined)
inactive: [2] 98 % of control | [3] 93 % of control | endpoint: mean survival time, dose: 400.0 mg/kg/injection, schedule: Q01DX009 (ip), vehicle: saline with Tween-80 96 % of control

Cc1ccc(C(C)NC2=NCCO2)c(C)c1 (centres undefined)
inactive: endpoint: mean survival time, dose: 25.0 mg/kg/injection, schedule: Q04DX002 (ip), vehicle: saline with Tween-80 91 % of control | endpoint: mean survival time, dose: 50.0 mg/kg/injection, schedule: Q04DX002 (ip), vehicle: saline with Tween-80 95 % of control

ClCC[Se](Cl)(Cl)c1ccccc1
inactive: endpoint: mean survival time, dose: 0.78 mg/kg/injection, schedule: Q01DX009 (ip), vehicle: saline 96 % of control and 110 % of control | endpoint: mean survival time, dose: 1.56 mg/kg/injection, schedule: Q01DX009 (ip), vehicle: saline 108 % of control | endpoint: mean survival time, dose: 3.12 mg/kg/injection, schedule: Q01DX009 (ip), vehicle: saline 108 % of control and 112 % of control | endpoint: mean survival time, dose: 6.25 mg/kg/injection, schedule: Q01DX009 (ip), vehicle: saline 115 % of control and 122 % of control

Cc1ccc(S(=O)(=O)N2C(=O)OC3(CCCCC3)C2C)cc1 (centres undefined)
inactive: [4] 100 % of control | endpoint: mean survival time, dose: 200.0 mg/kg/injection, schedule: Q01DX001 (ip), vehicle: saline with Tween-80 95 % of control | endpoint: mean survival time, dose: 400.0 mg/kg/injection, schedule: Q01DX001 (ip), vehicle: saline with Tween-80 92 % of control

C#CC(C)(C)OCC(CCl)OC(N)=O (centres undefined)
inactive: endpoint: mean survival time, dose: 25.0 mg/kg/injection, schedule: Q01DX009 (ip), vehicle: saline with Tween-80 97 % of control | endpoint: mean survival time, dose: 50.0 mg/kg/injection, schedule: Q01DX009 (ip), vehicle: saline with Tween-80 97 % of control | [2] 100 % of control | [3] 102 % of control

CCOC(=O)Nc1cc(Cl)c2nnn(C3OC(CO)C(O)C3O)c2n1 (centres undefined)
inactive: endpoint: mean survival time, dose: 12.5 mg/kg/injection, schedule: Q01DX005 (ip), vehicle: water 90 % of control | endpoint: mean survival time, dose: 25.0 mg/kg/injection, schedule: Q01DX005 (ip), vehicle: water 94 % of control | endpoint: mean survival time, dose: 50.0 mg/kg/injection, schedule: Q01DX005 (ip), vehicle: water 86 % of control | endpoint: mean survival time, dose: 100.0 mg/kg/injection, schedule: Q01DX005 (ip), vehicle: water 96 % of control | endpoint: mean survival time, dose: 200.0 mg/kg/injection, schedule: Q01DX005 (ip), vehicle: water 90 % of control

CN(C)c1cccc(C(C)(C)C)n1
inactive: endpoint: mean survival time, dose: 12.5 mg/kg/injection, schedule: Q04DX002 (ip), vehicle: saline 98 % of control | endpoint: mean survival time, dose: 25.0 mg/kg/injection, schedule: Q04DX002 (ip), vehicle: saline 106 % of control | endpoint: mean survival time, dose: 50.0 mg/kg/injection, schedule: Q04DX002 (ip), vehicle: saline 95 % of control

CCc1ccc(C(C)(C)C)cc1
inactive: [5] 99 % of control | [6] 105 % of control

COc1cc2c(cc1OC)C(Cc1ccccc1NC(=O)c1ccc(C(=O)Nc3ccccc3CC3c4cc(OC)c(OC)cc4CCN3C)cc1)N(C)CC2 (centres undefined)
inactive: [7] 97 % of control | [8] 94 % of control | endpoint: mean survival time, dose: 400.0 mg/kg/injection, schedule: Q01DX001 (ip), vehicle: saline 91 % of control

O=C(O)/C=C/C(=O)c1ccccc1
inactive: [1] 104 % of control | endpoint: mean survival time, dose: 25.0 mg/kg/injection, schedule: Q04DX003 (ip), vehicle: saline with Tween-80 98 % of control

O=[N+]([O-])c1ccc(N/N=C\c2ccc3ccccc3n2)cc1
inactive: [9] 106 % of control | [10] 109 % of control | [11] 101 % of control

O=C1C2=C(Nc3cc([N+](=O)[O-])ccc3N2)OC1c1ccccn1 (centres undefined)
inactive: endpoint: median survival time, dose: 25.0 mg/kg/injection, schedule: Q01DX005 (ip), vehicle: Klucel (hydroxypropylcellulose) (HPC) 102 % of control | endpoint: median survival time, dose: 50.0 mg/kg/injection, schedule: Q01DX005 (ip), vehicle: Klucel (hydroxypropylcellulose) (HPC) 108 % of control | endpoint: median survival time, dose: 100.0 mg/kg/injection, schedule: Q01DX005 (ip), vehicle: Klucel (hydroxypropylcellulose) (HPC) 108 % of control

O=C1c2ccccc2C(=O)N1CNc1cccc(NCN2C(=O)c3ccccc3C2=O)n1
inactive: [5] 104 % of control | [6] 106 % of control | endpoint: mean survival time, dose: 400.0 mg/kg/injection, schedule: Q04DX003 (ip), vehicle: saline with Tween-80 90 % of control

CC1CCCC/C1=N/O (centres undefined)
inactive: [9] 101 % of control | [10] 101 % of control | [11] 101 % of control

Cc1ccc2c(c1)C1(SC(C)C(=O)N1c1ccc(Cl)cc1)C(=O)N2 (centres undefined)
inactive: endpoint: median survival time, dose: 25.0 mg/kg/injection, schedule: Q01DX005 (ip), vehicle: saline with Tween-80 107 % of control | endpoint: median survival time, dose: 50.0 mg/kg/injection, schedule: Q01DX005 (ip), vehicle: saline with Tween-80 113 % of control | endpoint: median survival time, dose: 100.0 mg/kg/injection, schedule: Q01DX005 (ip), vehicle: saline with Tween-80 116 % of control | endpoint: median survival time, dose: 200.0 mg/kg/injection, schedule: Q01DX005 (ip), vehicle: saline with Tween-80 116 % of control | endpoint: median survival time, dose: 400.0 mg/kg/injection, schedule: Q01DX005 (ip), vehicle: saline with Tween-80 123 % of control

CC1CN(C2(c3ccccc3)CCCCC2)CCC12OCCO2 (centres undefined)
inactive: [12] 93 % of control | [13] 97 % of control

NC(=O)N/N=C1/CCCC2CCCCC12 (centres undefined)
inactive: endpoint: mean survival time, dose: 150.0 mg/kg/injection, schedule: Q04DX003 (ip), vehicle: saline with Tween-80 93 % of control | endpoint: mean survival time, dose: 300.0 mg/kg/injection, schedule: Q04DX003 (ip), vehicle: saline with Tween-80 89 % of control

O=[N+]([O-])/C=C\c1cc2c3c(c1)CCCN3CCC2
inactive: endpoint: mean survival time, dose: 3.13 mg/kg/injection, schedule: Q01DX009 (ip), vehicle: saline with Tween-80 105 % of control | endpoint: mean survival time, dose: 6.25 mg/kg/injection, schedule: Q01DX009 (ip), vehicle: saline with Tween-80 97 % of control | endpoint: mean survival time, dose: 12.5 mg/kg/injection, schedule: Q01DX009 (ip), vehicle: saline with Tween-80 100 % of control | endpoint: mean survival time, dose: 50.0 mg/kg/injection, schedule: Q01DX001 (ip), vehicle: saline with Tween-80 105 % of control | [4] 103 % of control

Cc1ccc(OC(=O)Nc2cc([N+](=O)[O-])ccc2[N+](=O)[O-])cc1
inactive: [12] 100 % of control | [13] 100 % of control | endpoint: mean survival time, dose: 400.0 mg/kg/injection, schedule: Q04DX002 (ip), vehicle: saline with Tween-80 92 % of control

O=c1c2cccc3c2-c2c4c(cccc14)c(O)c1cccc(c3=O)c21
inactive: endpoint: mean survival time, dose: 100.0 mg/kg/injection, schedule: Q04DX003 (ip), vehicle: saline sonified 94 % of control | endpoint: mean survival time, dose: 200.0 mg/kg/injection, schedule: Q04DX003 (ip), vehicle: saline sonified 95 % of control | endpoint: mean survival time, dose: 400.0 mg/kg/injection, schedule: Q04DX003 (ip), vehicle: saline sonified 92 % of control

CNC(=S)SC
inactive: endpoint: mean survival time, dose: 50.0 mg/kg/injection, schedule: Q01DX001 (ip), vehicle: saline 98 % of control | [7] 102 % of control | [8] 104 % of control
